Where two headings read alike, the source gives them in different places.
Key:
Assay type in all cases: cell-based
[1] = Inhibition of RPMI-8226 cell proliferation (CellTiter luminescent viability); details: Homo sapiens, read-out: Inhibition Rate at 10 nM (%)
[2] = test system: Human B-Cell Lymphoma Cells (RPMI-8226); experiment: as above; details: RPMI-8226, 500 nM, read-out: Inhibition Rate at 500 nM (%)
[3] = test system: Human lung cancer cell line (H292); experiment: Inhibition of H292 cell proliferation (CellTiter luminescent viability); details: NCI-H292, Table IM1, CDK9 inhibitor-based, 96 hours; for inhibition at 0.01 µM: H292, 10 nM, read-out: Inhibition Rate at 10 nM (%); for inhibition at 0.5 µM: H292, 500 nM, read-out: Inhibition Rate at 500 nM (%)
Description: The tumor cells used herein were cultured in a cell culture medium listed in table 3 at 37 °C in an incubator with 5% CO2. Prior to experimentation, all cell lines used were correctly identified by STR profiling, and tested negative for mycoplasma contamination using a mycoplasma detection kit through routine screenings.
The IC50 values of the compounds of the present disclosure (including the compounds in Table 1, Table 2, and Examples 1-468) were determined using the CellTiter-Meiluncell Luminescent Cell Viability Assay Kit from Dalian Meilun Biotech Co., Ltd. The detailed procedure is as follows: Tumor cells were seeded in 96-well cell culture plates at the densities specified in Table 4. On the following day, the test compounds of the present disclosure were subjected to serial dilution. The dilution can be performed according to one of the following two methods: • (1) The first dilution method: The test compounds of the present disclosure (including the compounds in Table 1, Table 2, and Examples 1-468) were subjected to 5-fold serial dilutions starting from a highest concentration of 2000 μM, resulting in a total of 9 concentrations from high to low (2000, 400, 80, 16, 3.2, 0.64, 0.128, 0.0256, 0.00512 μM). Subsequently, 0.5 μL of the test compound dilution was transferred into the 96-well plate containing the cells, with each well containing 100 μL of cell culture medium. […] Into the 96-well plate, the diluted test compounds and corresponding detection reagents were added, resulting in final test compound concentrations of 500 nM and 10 nM, respectively. The experimental procedure is described below using the diluted 2 μM test compound as an example.
0.5 μL of the aforementioned diluted compound of the present disclosure (including the compounds in Table 1, Table 2, and Examples 1-468) was added to the seeded cells in 100 μL of medium, yielding a final test compound concentration of 10 nM. After the cells were treated with the compounds of the present disclosure for a specified period, the cell viability assay reagent was added to the culture medium according to the kit's instructions to determine cell viability. […] All controls were treated using the same procedure as the compounds of the present disclosure. The growth inhibition curves for the compounds of the present disclosure were plotted using Prism GraphPad software, and the IC50 values were calculated therefrom.

[4] = test system: Human myeloid monocytic leukemia cell line (MV-4-11); experiment: Inhibition of MV-4-11 cell proliferation (CellTiter luminescent viability); details: Homo sapiens, MV4-11, Table IA3, IRAK4 inhibitor-based, 96 hours
Outline: (§1)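 IC50 is fitted from luminescent viability (CellTiter-Meiluncell) curves. Nine-point, 5-fold dilution series (top stock 2000 μM) are added at 0.5 μL per 100 μL medium to cells plated the day before, with growth at 37 °C and 5% CO2.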

[5] = test system: Human Acute T Lymphoblastic Leukemia Cells (Molt-4); experiment: Inhibition of Molt-4 cell proliferation (CellTiter luminescent viability); details: Homo sapiens, MOLT-4, 96 h, Table IA2, IRAK4 inhibitor-based, 96 hours; for inhibition at 0.01 µM: Molt-4, 10 nM, read-out: Inhibition Rate at 10 nM (%); for inhibition at 0.5 µM: Molt-4, 500 nM, read-out: Inhibition Rate at 500 nM (%)
[6] = test system: Human Multiple myeloma cell line (MM.1S); experiment: Inhibition of MM.1S cell proliferation (CellTiter luminescent viability); details: Homo sapiens, MM1.S, Table IA5, IRAK4 inhibitor-based, 96 hours
Outline: as §1

[7] = target: T1, IRAK4 (Homo sapiens, UniProt Q9NWZ3); experiment: Western blot degradation of IRAK4; details: hPBMC Cell; 24 hours
T1 construct: expression of target proteins in cells; endogenous in cells
T1 sequence (Q9NWZ3 1-460): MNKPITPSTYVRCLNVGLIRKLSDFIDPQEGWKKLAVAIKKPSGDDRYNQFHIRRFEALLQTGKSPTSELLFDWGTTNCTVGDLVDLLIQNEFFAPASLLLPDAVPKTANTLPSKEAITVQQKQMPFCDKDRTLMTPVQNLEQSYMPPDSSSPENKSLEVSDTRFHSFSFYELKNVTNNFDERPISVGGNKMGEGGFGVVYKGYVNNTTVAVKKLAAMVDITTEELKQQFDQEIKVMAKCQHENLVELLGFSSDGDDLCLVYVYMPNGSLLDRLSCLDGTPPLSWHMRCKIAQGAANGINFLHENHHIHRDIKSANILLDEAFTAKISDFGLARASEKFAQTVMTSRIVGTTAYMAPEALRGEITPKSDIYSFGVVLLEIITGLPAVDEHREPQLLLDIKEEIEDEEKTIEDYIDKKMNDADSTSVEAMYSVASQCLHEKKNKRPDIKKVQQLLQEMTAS
Outline: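 Compound-treated cells harvested; lysates denatured 5 min at 95 °C, run on SDS-PAGE, blotted to NC membrane, blocked 1 h RT, probed with antibodies. Densitometry vs DMSO → DC50; target normalised to internal control → % remaining, degradation = 1 − remaining.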

[8] = Table IA4, IRAK4 inhibitor-based, RPMI-8226, 10 nM, 96 hours
[9] = Table IA4, IRAK4 inhibitor-based, 96 hours

Structure (SMILES) | inhibition at 0.01 µM ([1]; RPMI-8226, 10 nM) | inhibition at 0.5 µM [2] | inhibition at 0.01 µM [3] | inhibition at 0.5 µM [3] | inhibition at 0.01 µM ([4]; MV-4-11, 10 nM, read-out: Inhibition Rate at 10 nM (%)) | inhibition at 0.5 µM ([4]; MV-4-11, 500 nM, read-out: Inhibition Rate at 500 nM (%)) | inhibition at 0.01 µM [1, 8] | inhibition at 0.5 µM [2, 9] | inhibition at 0.01 µM [5] | inhibition at 0.5 µM [5] | inhibition at 0.01 µM ([6]; 10 nM, read-out: Inhibition Rate at 10 nM (%)) | inhibition at 0.5 µM ([6]; 500 nM, read-out: Inhibition Rate at 500 nM (%)) | Degradation of substrate protein IRAK4 (substrate protein remaining %) [7]
O=C(NC1CCNCC1)c1[nH]ncc1NC(=O)c1c(Cl)cccc1Cl [AT7519, reference compound] | 0 to 5% | -20 to -15% | -5 to 0% | 5 to 10% |  |  |  |  |  |  |  |  | 
N#CC1(CNc2nc(-c3cc(NC4CCN(CC5CCN(c6ccc7c(c6)C(=O)N(N6CCC(=O)NC6=O)C7=O)CC5)CC4)ncc3Cl)cs2)CCOCC1 [GT-04719, 4-(((4-(5-chloro-2-((1-((1-(2-(2,4-dioxotetrahydropyrimidin-1(2H)-yl)-1,3-dioxoisoindolin-5-yl)piperidin-4-yl)methyl)piperidin-4-yl)amino)pyridin-4-yl)thiazol-2-yl)amino)methyl)tetrahydro-2H-pyran-4-carbonitrile] | 10 to 20% | 20 to 30% | 5 to 10% | 15 to 20% |  |  |  |  |  |  |  |  | 
O=C1CCN(N2Cc3cc(CN4CCN(c5ccc(-n6cc(NC(=O)c7coc(-c8ccnc(NCC(F)(F)F)c8)n7)c(C(F)F)n6)cc5)CC4)ccc3C2=O)C(=O)N1 [GT-05318, N-(3-(difluoromethyl)-1-(4-(4-((2-(2,4-dioxotetrahydropyrimidin-1(2H)-yl)-1-oxoisoindolin-5-yl)methyl)piperazin-1-yl)phenyl)-1H-pyrazol-4-yl)-2-(2-((2,2,2-trifluoroethyl)amino)pyridin-4-yl) oxazole-4-carboxamide] |  |  |  |  | 80 to 100% | 100 to 110% | 20 to 25% | 60 to 80% | 3 to 7% | 40 to 60% | 10 to 15% | 60 to 80% | A (0%≤substrate protein remaining %≤80%)
Cn1ncc(-c2nc(NC3CCN(Cc4ccc5c(c4)CN(N4CCC(=O)NC4=O)C5=O)CC3)ncc2Cl)c1CC1CC1 [GT-08212, 1-(5-((4-((5-chloro-4-(5-(cyclopropylmethyl)-1-methyl-1H-pyrazol-4-yl)pyrimidin-2-yl)amino)piperidin-1-yl)methyl)-1-oxoisoindolin-2-yl)dihydropyrimidine-2,4 (1H,3H)-dione] | 20 to 30% | 5 to 10% | 20 to 30% | 30 to 40% |  |  |  |  |  |  |  |  | 
N#CC1(CNc2cccc(-c3cc(NC4CCN(Cc5ccc6c(c5)C(=O)N(N5CCC(=O)NC5=O)C6=O)CC4)ncc3Cl)n2)CCOCC1 [GT-08215, 4-(((5′-chloro-2′-((1-((2-(2,4-dioxotetrahydropyrimidin-1(2H)-yl)-1,3-dioxoisoindolin-5-yl)methyl)piperidin-4-yl)amino)-[2,4′-bipyridin]-6-yl)amino)methyl)tetrahydro-2H-pyran-4-carbonitrile] | 20 to 30% | 20 to 30% | 20 to 30% | 20 to 30% |  |  |  |  |  |  |  |  | 
COc1cc2nn([C@H]3CC[C@H](CN4CCN(C5CCN(c6ccc7c(c6)C(=O)N(N6CCC(=O)NC6=O)C7=O)CC5(F)F)CC4)CC3)cc2cc1NC(=O)c1cccc(C(F)(F)F)n1 (stereo partly drawn) [GT-08659, N-(2-((1r,4r)-4-((4-(1-(2-(2,4-dioxotetrahydropyrimidin-1(2H)-yl)-1,3-dioxoisoindolin-5-yl)-3,3-difluoropiperidin-4-yl)piperazin-1-yl)methyl)cyclohexyl)-6-methoxy-2H-indazol-5-yl)-6-(trifluoromethyl) picolinamide] |  |  |  |  |  |  | 15 to 20% | 30 to 40% | 10 to 15% | 20 to 40% |  |  | A (0%≤substrate protein remaining %≤80%)
COc1cc2nn([C@H]3CC[C@H](CN4CCN(c5ccc6c(c5)C(=O)N(N5CCC(=O)NC5=O)C6=O)CC4)CC3)cc2cc1NC(=O)c1cccc(C(F)(F)F)c1 [GT-08661, N-(2-((1r,4r)-4-((4-(2-(2,4-dioxotetrahydropyrimidin-1(2H)-yl)-1,3-dioxoisoindolin-5-yl)piperazin-1-yl)methyl)cyclohexyl)-6-methoxy-2H-indazol-5-yl)-3-(trifluoromethyl)benzamide] |  |  |  |  |  |  | 20 to 25% | 25 to 30% | 15 to 20% | 15 to 20% |  |  | A (0%≤substrate protein remaining %≤80%)
COc1cc2nn([C@H]3CC[C@H](CN4C5CCC4CN(c4ccc6c(c4)C(=O)N(N4CCC(=O)NC4=O)C6=O)C5)CC3)cc2cc1NC(=O)c1cccc(C(F)(F)F)c1 [GT-08667, N-(2-((1r,4r)-4-((3-(2-(2,4-dioxotetrahydropyrimidin-1(2H)-yl)-1,3-dioxoisoindolin-5-yl)-3,8-diazabicyclo[3.2.1]octan-8-yl)methyl)cyclohexyl)-6-methoxy-2H-indazol-5-yl)-3-(trifluoromethyl)benzamide] |  |  |  |  |  |  | 20 to 25% | 30 to 40% | 20 to 40% | 20 to 40% |  |  | A (0%≤substrate protein remaining %≤80%)
COc1cc2nn([C@H]3CC[C@H](CN4CCN(c5ccc6c(c5F)C(=O)N(N5CCC(=O)NC5=O)C6=O)CC4)CC3)cc2cc1NC(=O)c1cccc(C(F)(F)F)c1 [GT-08669, N-(2-((1r,4r)-4-((4-(2-(2,4-dioxotetrahydropyrimidin-1(2H)-yl)-4-fluoro-1,3-dioxoisoindolin-5-yl)piperazin-1-yl)methyl)cyclohexyl)-6-methoxy-2H-indazol-5-yl)-3-(trifluoromethyl)benzamide] |  |  |  |  |  |  | 20 to 25% | 30 to 40% | 20 to 40% | 20 to 40% |  |  | A (0%≤substrate protein remaining %≤80%)
